Laboratory results as given in patent US4698355A, “Anti-hypertensive agents” (University of Miami, priority 1979, dated 1987).
Non-standard residues stand in square brackets, D forms with d. Residues, ends and D or L forms follow the SMILES beside them. No end group written: not given here. *: point of attachment. pGlu = O=C1CC[C@@H](C(=O)O)N1; Bz = O=C(c1ccccc1)*

Legend:
ACE = conditions: cited from earlier work
angiotensin I [1] = experiment: Oral effectiveness: blood pressure response to angiotensin I in anesthetized rats; assay type: in vivo, rat; conditions: oral 20 μmol/kg
Protocol: (§1) Rats (210-290 g body weight) were fasted overnight and then anesthetized with intraperitoneal pentobarbital, 50-60 mg/kg. Tracheostomy was performed and the animals were ventilated mechanically. A cannula was inserted into a femoral vein for injection of angiotensin I, and a second cannula was inserted into a common carotid artery for direct measurement of arterial blood pressure. Heparin, 1,000 units, was injected via the femoral vein to prevent coagulation. Blood pressure was measured with a pressure transducer connected to a polygraph. The rats were injected with […] of angiotensin I in 20 μl of 0.9 g % NaCl; an amount of angiotensin I sufficient to raise mean arterial blood pressure by 38 mm Hg. After the responsiveness of a given rat to angiotensin I was established, the named compound at 20 μmol/kg (drug dissolved in 0.15 ml of H2 O plus 10 μl of 1 N NaHCO3), was given via a stomach tube. At timed intervals, the effects of 400 ng/kg of angiotensin I on mean arterial blood pressure were tested.

angiotensin I [2] = experiment: Intravenous effectiveness: blood pressure response to angiotensin I in anesthetized rats; assay type: in vivo, rat; conditions: intravenous 2 μmol/kg
Protocol: as §1, with “tested. Results are shown below:” for “tested.”
Anesthetized rats were prepared as described in Example 18. After the control reponse to 400 ng/kg angiotensin I was measured for a given rat, the named compound was administered via a femoral vein. The dose was 2 μmol/kg of the named compound in 15 μl 0.01 N sodium bicarbonate. The results are shown as percent of the control response.

human urinary ACE = experiment: ACE activity assay (Benzoyl-GlyHisLeu substrate); assay type: biochemical; conditions: 0.05 M Hepes pH 8.0, 37° C.
Description: The role of ACE in the pathogenesis of hypertension has prompted a search for inhibitors of the enzyme that could act as antihypertensive drugs. See for example U.S. Pat. Nos. 3,891,616, 3,947,575, 4,052,511 and 4,053,651. […] 6, 1977, and in scientific articles by Cushman, D. W. et al., Biochemistry 16, 5484 (1977), and by Ondetti, M. et al., Science 196, 441 (1977). […] These factors include the source of enzyme, its purity, the substrate used and its concentration, and the composition of the assay buffer. All I50 data reported herein have been performed with the same assay system and same enzyme (human urinary ACE) and with an approximately 1/2 Km level of substrate and are therefore internally consistent. Discrepancies with data obtained by other workers may be observed. Indeed such discrepancies do exist in the literature, for unknown reasons. See, for example, the I50 values for BPP9a reported by Cushman, D. W., et al., Experientia 29, 1032 (1973) and by Dorer, F. E., et al., Biochim. Biophys. Acta 429, 220 (1976).
ACE activity assay. For most experiments described herein, the enzyme was assayed in 0.05 M Hepes buffer, pH 8.0 containing 0.1 M NaCl and 0.75 M Na2 SO4. […] Enzyme was diluted in the above buffer such that 40 μl buffered enzyme was capable of hydrolyzing 13% of substrate in a 15-minute incubation at 37° C. […]

For `C[C@H](NC(=O)[C@H](Cc1c[nH]c2ccccc12)NC(=O)[C@H](CCCCN)NC(=O)[C@@H]1CCC(=O)N1)C(=O)N1CCC[C@H]1C(=O)O` [BPP5a, <GluLysTrpAlaPro] ([pGlu]KWAP-OH), the “Km relative to angiotensin I (competitive substrate)” value (ACE) is given as “lower Km than angiotensin I”.

With `C[C@H](CSC(=O)[C@H](Cc1ccccc1)NC(=O)[C@@H]1CCC(=O)N1)C(=O)N1CCC[C@H]1C(=O)O` [Example 15, N^α - [3-(Pyro-L-glutamyl-L-phenylalanylthio)-2-D-methylpropanoyl]-L-proline] the “Blood pressure response to 400 ng/kg of Angiotensin I” value (angiotensin I [1]; 5 min) was 66 % of Control, the “Blood pressure response to 400 ng/kg of Angiotensin I” value (angiotensin I [1]; 15 min) was 26 % of Control and the “Blood pressure response to 400 ng/kg of Angiotensin I” value (angiotensin I [1]; 18 min) was 26 % of Control. The “Blood pressure response to 400 ng/kg of Angiotensin I” value (angiotensin I [1]; 21 min) was 21 % of Control, the “Blood pressure response to 400 ng/kg of Angiotensin I” value (angiotensin I [1]; 25 min) was 21 % of Control and the “Blood pressure response to 400 ng/kg of Angiotensin I” value (angiotensin I [1]; 29 min) was 24 % of Control. For the same molecule, the “Blood pressure response to 400 ng/kg of Angiotensin I” value (angiotensin I [1]; 39 min) was 18 % of Control, the “Blood pressure response to 400 ng/kg of Angiotensin I” value (angiotensin I [1]; 44 min) was 16 % of Control and the “Blood pressure response to 400 ng/kg of Angiotensin I” value (angiotensin I [1]; 49 min) was 16 % of Control. The “Blood pressure response to 400 ng/kg of Angiotensin I” value (angiotensin I [1]; 54 min) was 18 % of Control, the “Blood pressure response to 400 ng/kg of Angiotensin I” value (angiotensin I [1]; 60 min) was 18 % of Control and the “Blood pressure response to 400 ng/kg of Angiotensin I” value (angiotensin I [1]; 74 min) was 18 % of Control. For the same molecule, the “Blood pressure response to 400 ng/kg of Angiotensin I” value (angiotensin I [1]; 86 min) was 21 % of Control, the “Blood pressure response to 400 ng/kg of Angiotensin I” value (angiotensin I [1]; 110 min) was 21 % of Control and the “Blood pressure response to 400 ng/kg of Angiotensin I” value (angiotensin I [1]; 120 min) was 26 % of Control. The “Blood pressure response to 400 ng/kg of Angiotensin I” value (angiotensin I [1]; 132 min) was 26 % of Control, the “Blood pressure response to 400 ng/kg of Angiotensin I” value (angiotensin I [1]; 142 min) was 26 % of Control and the “Blood pressure response to 400 ng/kg of Angiotensin I” value (angiotensin I [1]; +1 min) was 53 % of Control. For the same molecule, the “Blood pressure response to 400 ng/kg angiotensin I” value (angiotensin I [2]; 5 min) was 18 % of control, the “Blood pressure response to 400 ng/kg angiotensin I” value (angiotensin I [2]; 11 min) was 21 % of control and the “Blood pressure response to 400 ng/kg angiotensin I” value (angiotensin I [2]; 14 min) was 24 % of control. For the same molecule, the “Blood pressure response to 400 ng/kg angiotensin I” value (angiotensin I [2]; 17 min) was 29 % of control, the “Blood pressure response to 400 ng/kg angiotensin I” value (angiotensin I [2]; 20 min) was 34 % of control and the “Blood pressure response to 400 ng/kg angiotensin I” value (angiotensin I [2]; 24 min) was 42 % of control. For the same molecule, the “Blood pressure response to 400 ng/kg angiotensin I” value (angiotensin I [2]; 32 min) was 47 % of control, the “Blood pressure response to 400 ng/kg angiotensin I” value (angiotensin I [2]; 43 min) was 53 % of control and the “Blood pressure response to 400 ng/kg angiotensin I” value (angiotensin I [2]; 49 min) was 58 % of control. The “Blood pressure response to 400 ng/kg angiotensin I” value (angiotensin I [2]; 56 min) was 61 % of control, the “Blood pressure response to 400 ng/kg angiotensin I” value (angiotensin I [2]; 71 min) was 71 % of control and the “Blood pressure response to 400 ng/kg angiotensin I” value (angiotensin I [2]; 76 min) was 68 % of control. The “Blood pressure response to 400 ng/kg angiotensin I” value (angiotensin I [2]; 88 min) was 76 % of control, the “Blood pressure response to 400 ng/kg angiotensin I” value (angiotensin I [2]; 99 min) was 76 % of control and the “Blood pressure response to 400 ng/kg angiotensin I” value (angiotensin I [2]; 109 min) was 74 % of control. The “Blood pressure response to 400 ng/kg angiotensin I” value (angiotensin I [2]; 125 min) was 84 % of control and the “Blood pressure response to 400 ng/kg angiotensin I” value (angiotensin I [2]; +1/2 min (30 sec.)) was 8 % of control.

Molecule `CC(C)C[C@H](NC(=O)[C@H](Cc1cnc[nH]1)NC(=O)CNC(=O)c1ccccc1)C(=O)O` [Benzoyl-GlyHisLeu] (Bz-Gly-His-Leu-OH) has a Km (human urinary ACE) of about 200 µM.

In the case of RPPGFSPFR [bradykinin], the “Km relative to angiotensin I (competitive substrate)” value (ACE) is listed as “lower Km than angiotensin I”.
